Consider one molecule from patent publication US10385108B2, “Peptide analogs of alpha-melanocyte stimulating hormone” (Genzyme Corporation, priority 2008, dated 2019).

One assay relates to C57BL/6 mice. Kind of assay: MOG35-55 induced EAE model. It is filed as in vivo.
Assay [1] concerns B16-F1 murine melanoma cells. Kind of assay: Intracellular cAMP in B16-F1 melanoma cells. It counts as cell-based. As for the experimental part: B16-F1 (melanoma cell line) cells from American Type Culture Collection (Manassas, Va.) were seeded into flat bottom 96 well plates at 5×10^4/well and cultured overnight in DMEM (Cambrex, Walkersville, Md.) supplemented with 2 mM glutamine, antibiotics (100 U/ml penicillin and 100 […]) and 10% heat-inactivated fetal bovine serum (Invitrogen, Grand Island, N.Y.). […] Cells were lysed and intracellular cAMP levels were measured by an enzyme immunoassay kit (Amersham Biosciences, Piscataway, N.J.). Forskolin (Sigma, St. Louis, Mo.) at 100 μM served as positive controls.
cAMP levels in B16-F1 melanoma cells after treatment with native α-MSH, RI α-MSH, or a scrambled control peptide were examined. The […] melanoma cell line expresses a high number of MCR1 receptors (3000-4000 receptors/cell) compared with macrophages cell lines which express only 100-200 receptors/cell. Therefore we selected to examine the effect of the RI α-MSH treatment on the melanoma cell line. Murine melanoma B16-F1 cells were treated with native α-MSH, RI α-MSH, or control scrambled peptide at concentrations 1 pg/ml-1 μg/ml. After 30 min, cells were lysed and intracellular cAMP was measured by an enzyme immunoassay. […] However, a higher concentration of RI α-MSH (100 ng/ml) was necessary to increase cAMP compared with native α-MSH which increased cAMP at a 10 pg/ml concentration. This difference in concentration of peptide necessary to increase cAMP levels may be the result of the binding affinity to the MCR1 receptor.
Murine melanoma B16-F1 cells were treated with native α-MSH, RI α-MSH, scrambled peptide control, KPV, or alanine substituted peptides of RI α-MSH at 1 μg/ml (FIG. 7B). […] Peptides designated 810, 811, and 812 have alanine substitutions in the central core tetrapeptide sequence (D-Trp D-Arg D-Phe D-His region; AA 5-8) (variant disclosed in SEQ ID NO:2) proposed to be involved in native α-MSH binding to the melanocortin receptor and its biological activity. […] The residues in the core tetrapeptide (wrfh) (variant disclosed in SEQ ID NO:2) and to a lesser extent, the methionine 4 of RI-MSH are critical for binding to MC1R.
B16-F1 murine melanoma cells were cultured into 96 well plates 5×10^4 cells/well overnight in media with L-glutamine and pen/strep and FBS. Media was removed and new media with IBMX was added to the cells for 1 hr. Cells were then treated with RI α-MSH, or RI α-MSH peptide analogs (890, 891, 892, 893, 894 or 895). Cells were lysed after 30 min using a cAMP assay kit and supernatant were used in the assay. Forskolin at 10 μM served as positive controls.
Intracellular cAMP was measured using a cAMP competition Assay Kit (Amersham Biosciences). All cell lysate samples were diluted 1:100 for analysis.
Murine melanoma B16-F1 cells were treated with RI α-MSH, or RI α-MSH analogs (869, 872, 880, 878, 886 and 890-895) at a concentration range of 10^−4-10^−11 M. cAMP levels from cells treated with RI α-MSH, or RI α-MSH analogs. […] See FIG. 22 for graphical data and Table 2 for EC50 data.

In the next assay the target is MC5R (Homo sapiens, UniProt P33032). Kind of assay: Competitive binding with 125I-NDP-MSH, HEK293 membrane preparations, MC5R.
The mark [2] stands for this setting: Example 10, 100 μg/mouse i.p. daily from day 10.

Chain of MC5R (P33032 whole entry): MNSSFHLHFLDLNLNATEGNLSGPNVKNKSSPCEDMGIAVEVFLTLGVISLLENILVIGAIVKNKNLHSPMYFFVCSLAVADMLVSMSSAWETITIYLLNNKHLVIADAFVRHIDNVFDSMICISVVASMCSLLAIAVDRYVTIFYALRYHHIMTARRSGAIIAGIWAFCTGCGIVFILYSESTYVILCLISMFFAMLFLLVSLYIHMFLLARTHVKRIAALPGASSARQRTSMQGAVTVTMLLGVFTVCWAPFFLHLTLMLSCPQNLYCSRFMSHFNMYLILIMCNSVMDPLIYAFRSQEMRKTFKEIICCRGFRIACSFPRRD
Method for MC5R: Binding analysis was done by Cerep laboratories (Paris, France) with coded samples.
The mixtures were filtered through 96-well GFC filters (Millipore, Billerica, Mass.), washed 3 times with binding buffer without BSA, dried and counted.
A competitive binding assay using a MCR panel including MCR 1, 3, 4, and 5 was performed.

In the case of `CSCC[C@@H](NC(=O)[C@@H](CCC(=O)O)NC(=O)[C@@H](Cc1c[nH]cn1)NC(=O)[C@@H](Cc1ccccc1)NC(=O)[C@@H](CCCNC(=N)N)NC(=O)[C@@H](Cc1c[nH]c2ccccc12)NC(=O)CNC(=O)[C@@H](CCCCN)NC(=O)[C@H]1CCCN1C(=O)[C@H](NC(C)=O)C(C)C)C(=O)N[C@H](CO)C(=O)N[C@H](Cc1ccc(O)cc1)C(=O)N[C@H](CO)C(N)=O` [RI-MSH, vpkGwrfhemsys], in the assay with C57BL/6 mice (100 μg/mouse i.p. daily from day 10, day 24), the “spinal cord histopathology (in words)” value is “lack focal area of inflammation”. Besides, the “TNF-α mRNA in spleen vs PBS (in words)” value is listed as “no significant change” in the assay on C57BL/6 mice (Day 1 and Day 4 of treatment); “significantly decreased” with C57BL/6 mice (after 7 days of daily treatment). Also, the “IL-10 mRNA in spleen vs PBS (in words)” value with C57BL/6 mice (Day 7 of treatment) was “reduced”; in the assay on C57BL/6 mice (earlier timepoints (Day 1 and 4)) it was “no difference”. Besides, the “maximum percent incidence of disease” value in the assay with C57BL/6 mice (setting [2]) is reported as 20%; with C57BL/6 mice (Example 11, dexamethasone 2 mg/kg), 35%. For the same molecule, the “mean clinical disease score vs PBS (in words)” value with C57BL/6 mice (setting [2]) is given as “significant reduction in the mean clinical disease score”; in the assay with C57BL/6 mice (Example 11, peptides 100 μg/mouse, dexamethasone 2 mg/kg, i.p. daily from day 10), “reduction in the mean clinical disease score”. Moreover, the “mean clinical scores (in words)” value in the assay with C57BL/6 mice (Example 11, 30 μg/mouse i.p. daily from day 10) is “did not have a significant effect”. Also, in assay [1] (1 pg/ml-1 μg/ml, 30 min, vs untreated or scrambled peptide), the “cAMP levels, dose response (in words)” value was “significantly increased cAMP levels in a dose dependent manner”. The “concentration necessary to increase cAMP” value in assay [1] (30 min) is 100 ng/mL. The same molecule displayed an EC50 in assay [1] (B16-F1 cells, 10^-4-10^-11 M, 30 min, IBMX) of 9.7 µM. Besides, the “cAMP levels (in words)” value in assay [1] (peptide at 1 μg/ml) is recorded as “significantly elevated”. Besides, at MC5R (Ki MC5R, competition with 125I-NDP-MSH, cells noted in μM), the Ki was roughly 25 µM. The “binding to MCR-5 (in words)” value on MC5R (MCR panel 1, 3, 4, 5) is “bind only to MCR-1”.

Usually EC50 stands for the concentration needed to bring the measured effect to its halfway point. Low values mean higher potency in that assay, high ones lower potency in that assay. Broadly, the Ki is a dissociation constant, usually derived from enzyme kinetics or from competition with a known ligand. High values mean a looser hold on the target, low ones a stronger hold on the target.
